Measured values published in article PMC10254444, “Targeting Myeloperoxidase Activity and Neutrophil ROS Production to Modulate Redox Process: Effect of Ellagic Acid and Analogues” (Molecules, 2023).
“Also recorded” adds a separate entry of the source.

How the values were obtained:
[1] = ABTS radical cation assay
Description: The ABTS assay was based on the method described by Re et al.. For the generation of ABTS^•+ radicals, sodium persulfate (2.45 mM) aqueous solution was mixed with ABTS (7 mM) and incubated overnight in the dark to obtain a dark-colored solution. Stock solution of ABTS^•+ was then diluted by adding pure methanol (100%) to obtain an absorbance of 0.70 (±0.02) at 734 nm at 30 °C. To obtain more repetition, the ABTS assay was performed using a microplate reader (ThermoLabsystem, Finland). An aliquot of 2 µL of the tested compound (EA or analogue) was added to 198 µL of ABTS^•+, and the decrease in absorbance was monitored at 740 nm after 30 min [32]. During this reaction, the blue-green ABTS radical cation is converted back into its colorless neutral form in the presence of the potential antioxidant molecule. A control consisted of 2 µL of DMSO in 198 µL of ABTS^•+ solution. The reducing capacity was determined according to the formula:% inhibition = (Acontrol − ASample) × 100/AControl(1)

[2] = target: T1, Horseradish peroxidase (HRP) (Armoracia rusticana, UniProt P00433); test: HRP-catalyzed oxidation of L012 (chemiluminescence); assay type: biochemical
T1 construct: purchased Merck (Darmstadt, Germany)
T1 sequence (P00433 31-338 limits assumed): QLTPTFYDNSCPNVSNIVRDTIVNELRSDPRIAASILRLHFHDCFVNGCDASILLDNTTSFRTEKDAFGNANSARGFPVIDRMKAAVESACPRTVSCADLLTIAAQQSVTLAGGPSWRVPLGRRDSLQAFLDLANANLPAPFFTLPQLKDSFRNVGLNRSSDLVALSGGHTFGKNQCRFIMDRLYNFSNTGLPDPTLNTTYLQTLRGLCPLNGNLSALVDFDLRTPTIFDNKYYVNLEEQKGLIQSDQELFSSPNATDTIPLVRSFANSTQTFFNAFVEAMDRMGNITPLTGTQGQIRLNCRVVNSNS
Description: […] (HRP) reacts with hydrogen peroxide (H2O2), yielding “compound I (HRP^+.-Fe (IV=O))”, which is a reactive intermediate of HRP that is able to oxidize any potential reducing agent. Briefly, 2 μL of compound or reference molecule (ellagic acid) were incubated in phosphate buffer at pH 7.4 (153 μL, 50 mM) containing 5 μL HRP (100 µg/L), 20 μL L0-12 (10^−3 M), and 20 μL H2O2 (1 mM), and the chemiluminescence was immediately measured using a Fluoroskan Ascent 96-plate reader (ThermoLabsystem, Finland) at 37 °C for 30 min [32, 34]. The analysis was conducted in a 96-well microtiter plate. All the assays were performed in triplicate and repeated at least twice (N = 2; n = 6). The relative activity in terms of inhibition percentage of the tested compound or reference (ellagic acid) was compared to a control in the presence of DMSO taken as a solvent. The inhibition percentage was calculated using a similar formula (Equation (1)) as described above.

[3] = target: T2, human myeloperoxidase (MPO) (Homo sapiens, UniProt P05164); test: MPO activity by SIEFED assay; assay type: biochemical
T2 construct: purchased Calbiochem Millipore
T2 sequence (P05164 49-745): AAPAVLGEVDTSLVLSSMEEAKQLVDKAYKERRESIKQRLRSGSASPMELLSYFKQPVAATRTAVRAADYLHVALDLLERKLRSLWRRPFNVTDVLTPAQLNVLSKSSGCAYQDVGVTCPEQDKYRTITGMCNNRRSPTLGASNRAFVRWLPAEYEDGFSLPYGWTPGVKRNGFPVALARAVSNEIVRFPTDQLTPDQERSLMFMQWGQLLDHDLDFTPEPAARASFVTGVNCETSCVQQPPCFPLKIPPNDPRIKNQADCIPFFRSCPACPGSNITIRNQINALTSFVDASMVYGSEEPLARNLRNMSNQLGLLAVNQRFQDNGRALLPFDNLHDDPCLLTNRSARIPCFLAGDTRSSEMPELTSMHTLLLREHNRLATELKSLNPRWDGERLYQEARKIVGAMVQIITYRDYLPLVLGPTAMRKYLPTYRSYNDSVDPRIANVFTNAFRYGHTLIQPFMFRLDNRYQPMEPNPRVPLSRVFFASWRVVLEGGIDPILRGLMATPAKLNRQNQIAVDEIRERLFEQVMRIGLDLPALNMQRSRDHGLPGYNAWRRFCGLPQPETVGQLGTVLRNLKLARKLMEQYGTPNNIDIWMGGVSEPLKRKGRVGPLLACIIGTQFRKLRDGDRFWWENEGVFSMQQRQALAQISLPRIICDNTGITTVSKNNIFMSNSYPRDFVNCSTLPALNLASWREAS
Description: Measurement of the peroxidase activity of MPO was performed by a classical enzymatic assay and by SIEFED assay as described by Nyssen et al.. The MPO solution was prepared with purified human MPO in dilution buffer (PBS 20 mM at pH 7.4 with 5 g/L BSA and 0.1% Tween-20). The solutions of EA or analogue, at final concentrations ranging from 10^−8 M to 10^−5 M, were incubated for 10 min with human MPO at a final concentration of 5 mU/mL before further use. The revelation of MPO activity was performed by monitoring the enzyme-catalyzed oxidation of Amplex Red in the presence of H2O2 (10 μM) and nitrite (4.5 mM) in phosphate buffer at pH 7.4.
Samples with MPO and various concentrations of […] were prepared and incubated as with the classical assay. An amount of 100 μL of each mixture (MPO alone or MPO + EA/DMSO) was then loaded into the wells of a SIEFED microtiter plate coated with rabbit polyclonal antibodies (3 μg/mL) against human MPO and incubated for 2 h at 37 °C in darkness. After washing up the wells, the activity of the enzyme captured by the antibodies was measured by adding 10 μL sodium nitrite solution (4.5 mM, final concentration) and 100 μL of a reactional solution containing 10 μM H2O2 and 40 μM Amplex® in phosphate buffer (50 mM) at pH 7.4. The oxidation of Amplex® Red into the fluorescent adduct resorufin (λexcitation = 544 nm; λemission = 590 nm) was monitored for 30 min at 37 °C with a fluorescent plate reader (Fluoroskan Ascent, Fisher Scientific). As for the MPO direct assay, a control assay set as the relative value of MPO activity was performed with purified MPO in the presence of PBS instead of the samples of EA or analogue dissolved in DMSO. In this SIEFED assay, MPO was bonded by the antibodies into the wells, and EA/analogue was discarded in the washing step before starting the measurement of the enzymatic activity. For both MPO assays, the inhibition percentage was calculated using a similar formula (Equation (1)) as described above.

Compound | ABTS activity (in words) [1] | HRP inhibiting activity (in words) [2] | MPO activity, SIEFED assay (in words) [3] | IC50 [1] | IC50 [2]
CN(C)C(=O)Oc1cc2c(=O)oc3c(OC(=O)N(C)C)c(OC(=O)N(C)C)cc4c(=O)oc(c1OC(=O)N(C)C)c2c34 [compound 6, Sevellagic acid] | no significant activity | lack of effect | weak activity or the absence of inhibition activity | – | –
CCOC1Oc2cc(C(=O)OC)cc(O)c2O1 (stereo not drawn) [compound 11, methyl 2-ethoxy-7-hydroxybenzo[d][1,3]dioxole-5-carboxylate] | – | – | activator of MPO activity; also recorded: promote, rather than inhibit, MPO activity | 6.56 ± 0.37 µM | 3.55 ± 0.37 µM
